This is an account of results in patent publication US20210386812A1, “DEVELOPMENT OF HEALTH FOOD SUPPLEMENTS AND ANTIOXIDANTS FOR CONTROLLING HYPERURICEMIA AND OXIDATIVE STRESS” (Baylor College of Medicine, priority 2018, published 2021).

“And” between values parts separate entries of the source, which are not always exact repeats. Equal values may be shown once. “Also recorded” adds a separate entry of the source. Read-outs that look alike come from different tables or passages of the source.

One data set has as its system XO. The settings on record: in vitro; cited from earlier work.
A further data set has as its system serum uric acid. The experiment in a line: Hypouricemic effect in allantoxanamide-treated mice. The format is in vivo, C57BL/6 mice. Conditions: Allantoxanamide 200 mg/kg i.p., at both 1.5 hours and 3 hours; Allopurinol 13.3 mg/kg, recipe 41.7 and 83.4 mg/kg. The procedure:
Recipe includes Japanese Thistle Extract, Grape Seed Extract, Amla Fruit Extract, Pine Bark Extract, Chinese Mint Extract and Folic acid. Mice were Intraperitoneally (i.p.)-injected with uricase inhibitor allantoxanamide to induce hyperuricemia in mice. […] Blood was taken from facial vein at 1.5 hour and 3 hour after the treatment. Serum uric acid level was measured the next day with a phosphotunstate method. N=4 per group.
Mouse experiment design, method and results. […] Folic acid solution was prepared separately by dissolving 2.6 mg folic acid in 1 ml 0.1 m potassium phosphate buffer, then 6 ul of this FA solution was added to the 10 ml extract solution.
Adult C57BL/6 mice (about 20 g body weight) were used. Four groups of mice (n=4 per group) were assigned for different treatments or controls (Table 12). Intraperitoneal (i.p.) injection of uricase inhibitor allantoxanamide can effectively block the conversion of uric acid to 5-hydroxyisourate and thus cause a marked increase in serum uric acid levels in mice, providing a hyperuricemic animal model (34). […] Blood was taken from facial vein at 1.5 hours and 3 hours after the treatment. Serum uric acid level was measured with a phosphotunstate method.

Data set [1] addresses T1, Xanthine oxidase (XO) (Homo sapiens, UniProt P47989). Briefly: Xanthine oxidase (XO) inhibition assay in a cell-free system. Conditions: for XO activity inhibition (in words): increasing concentrations.
Protocol: All 72 herb extracts (100 g) are in the powder form. Each extract was dissolved in water or DMSO respectively with strong votex, at stock concentration of 50 mg/ml. The solution was kept at room temperature for 30 min before centrifugation at 14k rpm. The clear solution was used for assay of XO inhibitory activity. XO activity was determined using the method of continuous spectrophotometric rate measurements (60). The reaction mixture contained xanthine in 67 mM phosphate buffer (pH 7.4) and 20 nM XO with an activity of 5 uU/mL, with or without extract solution. After pre-incubating the extract (at 0-10 ul) with XO for 1 min at 25° C., 50 uM xanthine was added to initiate the formation of uric acid, and the increase of absorption of uric acid at 295 nm was monitored in a dynamic mode. Initial rate of XO activity was recorded. […] For initial screen of herb extracts, final concentration of each extract was 163 ug/ml. Percentage of inhibition is calculated: Percentage of inhibition=(1−test OD/blank OD)×100
XO inhibition assay for folic acid related molecules is similar to that for herb extracts. Folic acids were dissolved in DMSO. Dose-dependent of folic acids and photolysis effect were studied.
Furthermore, we performed a dose dependent XO inhibition assay for each of these 14 extracts (DMSO-soluble fractions). […] IC50 is an operational parameter defined as the concentration of inhibitor required for achieving 50% inhibition of the enzyme.
Folic acid and its two derivatives, dihydrofolic acid and tetrahydrofolic acid, were employed in the XO inhibition assay. When 20 nM XO was mixed with increasing concentrations of folic acid, dihydrofolic acid and tetrahydrofolic acid.
The initial rate of uric acid formation in the reaction system was recorded; and XO inhibition rate of each herb extract was calculated.
Furthermore, a dose dependent XO inhibition assay was performed for each of these 15 extracts. […] IC50 is an operational parameter defined as the concentration of inhibitor required for achieving 50% inhibition of the enzyme.
For data set [2] the following is noted: cited from earlier work.
The target in data set [3] is T1, Xanthine oxidase (XO). The experiment in a line: XO inhibition combination assay of herb extract with folic acid or 5-MTHF, added separately without pre-mixing. Conditions: read-out: XO activity inhibition.
Protocol: All 14 traditional Chinese medicine herb extracts were tested. Folic acid (0.167 uM) and extract (13.3 ug/ml) were separately added into the XO reaction system without pre-mixing. XO activity was measured.
Fresh prepared 5-MTHF (3.3 uM) and herb extract (13.3 ug/ml) was added to XO reaction system separately, XO activity was recorded.
Eight herbal extracts were selected and tested. Folic acid (0.167 uM) and each extract at a defined concentration (ug/ml) were separately added into the XO reaction system without pre-mixing. XO activity was measured.
Based on the result of dose-dependent XO inhibition experiments for herb extracts and folic acid, a relatively small concentration of each extract (a total of 14 extracts) and folic acid were utilized for a combination assay.
Folic acid (0.167 uM) and extract (13.3 ug/ml) were separately added into the XO reaction system without pre-mixing. XO activity was measured.
The inventors also tested the combination of 5-MTHF with different traditional Chinese medicine herb extracts for their effect on XO activity in vitro (FIG. 10).
Based on the result of dose-dependent XO inhibition experiments for herb extracts and folic acid, a relatively small concentration of each of 8 herbal extracts and folic acid were selected for a combination assay. […] XO activity was measured (FIG. 13).

T1 sequence (P47989 whole entry, species assumed): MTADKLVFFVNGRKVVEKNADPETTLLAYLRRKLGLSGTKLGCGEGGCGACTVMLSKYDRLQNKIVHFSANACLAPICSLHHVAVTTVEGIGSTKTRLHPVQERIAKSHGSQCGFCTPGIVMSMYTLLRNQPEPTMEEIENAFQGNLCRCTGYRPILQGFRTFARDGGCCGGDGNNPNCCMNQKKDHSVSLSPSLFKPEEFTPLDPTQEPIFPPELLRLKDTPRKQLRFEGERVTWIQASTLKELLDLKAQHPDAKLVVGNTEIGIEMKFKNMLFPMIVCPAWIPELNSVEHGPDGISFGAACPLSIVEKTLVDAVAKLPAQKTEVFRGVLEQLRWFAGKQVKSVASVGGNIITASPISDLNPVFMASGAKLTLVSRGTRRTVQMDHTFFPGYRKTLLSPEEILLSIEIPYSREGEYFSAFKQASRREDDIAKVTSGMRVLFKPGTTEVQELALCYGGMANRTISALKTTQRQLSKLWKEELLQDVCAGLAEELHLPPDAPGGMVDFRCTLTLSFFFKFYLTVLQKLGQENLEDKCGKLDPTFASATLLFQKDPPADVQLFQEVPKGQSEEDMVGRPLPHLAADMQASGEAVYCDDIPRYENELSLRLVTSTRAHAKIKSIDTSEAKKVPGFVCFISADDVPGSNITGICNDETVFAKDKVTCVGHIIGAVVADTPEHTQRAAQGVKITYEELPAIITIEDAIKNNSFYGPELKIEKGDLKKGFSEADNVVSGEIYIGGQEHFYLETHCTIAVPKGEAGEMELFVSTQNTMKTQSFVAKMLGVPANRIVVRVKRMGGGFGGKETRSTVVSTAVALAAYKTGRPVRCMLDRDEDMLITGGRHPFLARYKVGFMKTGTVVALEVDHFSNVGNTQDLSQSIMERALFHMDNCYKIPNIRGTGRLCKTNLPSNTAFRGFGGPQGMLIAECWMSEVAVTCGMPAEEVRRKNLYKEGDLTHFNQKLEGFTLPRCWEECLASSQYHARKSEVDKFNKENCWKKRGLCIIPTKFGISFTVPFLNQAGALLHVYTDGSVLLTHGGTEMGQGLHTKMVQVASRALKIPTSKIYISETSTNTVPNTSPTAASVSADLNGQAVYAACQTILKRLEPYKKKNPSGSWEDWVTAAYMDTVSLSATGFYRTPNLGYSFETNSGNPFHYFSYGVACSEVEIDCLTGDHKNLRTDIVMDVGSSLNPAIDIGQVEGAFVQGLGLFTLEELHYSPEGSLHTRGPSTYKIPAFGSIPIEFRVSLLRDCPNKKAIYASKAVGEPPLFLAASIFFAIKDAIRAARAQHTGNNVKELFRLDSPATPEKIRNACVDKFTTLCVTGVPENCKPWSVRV

`Nc1nc2ncc(C=O)nc2c(=O)[nH]1` [6-formyl pterin]: the “XO inhibitory effect (literature)” value in the data set with XO is recorded as “very potent XO inhibitor”.

Turning to `Oc1ncnc2[nH]ncc12` [Allopurinol], the “Serum uric acid levels” value in the data set with serum uric acid was “significantly reduced serum uric acid levels”.

For the molecule `O=Cc1cc(O)c(O)c([N+](=O)[O-])c1` [DHNB, 3,4-Dihydroxy-5-nitrobenzaldehyde], the IC50 (commonly the concentration at which inhibition is half-maximal) against Xanthine oxidase (XO) [1] was determined as 3 µM.

In the case of `CN1c2c(nc(N)[nH]c2=O)NCC1CNc1ccc(C(=O)N[C@@H](CCC(=O)O)C(=O)O)cc1` (stereo partly drawn) [Extract 5-MTHF, 5-methyl tetrahydrofolate], at Xanthine oxidase (XO) [1] (cell-free system), the “XO inhibitory potency relative to a comparator (in words)” value is on record as “weaker than folic acid”. In addition, the “XO activity inhibition (in words)” value at Xanthine oxidase (XO) [1] (20 nM XO) is recorded as “effectively inhibited XO activity; also recorded: inhibited XO activities in a concentration-dependent manner”. Also, the IC50 on Xanthine oxidase (XO) [1] (read-out: IC50 for XO inhibition, 20 nM XO, cell-free system) was ~35.6 µM and 35.6 µM.

As for `Nc1nc2c(c(=O)[nH]1)N=C(CNc1ccc(C(=O)N[C@@H](CCC(=O)O)C(=O)O)cc1)CN2` [dihydrofolic acid], the “XO inhibitory effect (literature)” value in the data set on XO is listed as “stronger than that of folic acid”. The “XO inhibitory potency relative to a comparator (in words)” value was “dihydrofolic acid>tetrahydrofolic>folic acid” on Xanthine oxidase (XO) [1] (cell-free system) and “more potent than folic acid” on Xanthine oxidase (XO) [1] (cell-free system, listed as Dihydrofolic acid). For the same molecule, the “XO activity inhibition (in words)” value at Xanthine oxidase (XO) [1] (20 nM XO) was “significantly inhibited XO activity”.

Regarding `Cc1nc(-c2ccc(OCC(C)C)c(C#N)c2)sc1C(=O)O` [febuxostat], in data set [2] (in some studies), the “Patients with transaminase elevations greater than three times the upper limit of normal” value was 2-3%. Moreover, in data set [2] (initial clinical studies), the “Patients with cutaneous adverse effects” value is recorded as “about 2%”.

Consider `Nc1nc2ncc(CNc3ccc(C(=O)N[C@@H](CCC(=O)O)C(=O)O)cc3)nc2c(=O)[nH]1` [folic acid], for which the IC50 on Xanthine oxidase (XO) [1] was found to be 0.75 µM. Moreover, the “XO inhibitory potency relative to a comparator (in words)” value on Xanthine oxidase (XO) [1] (cell-free system) was “stronger than Allopurinol and DHNB”. For the same molecule, the “XO activity inhibition (in words)” value on Xanthine oxidase (XO) [1] (20 nM XO) is recorded as “significantly inhibited XO activity”. At Xanthine oxidase (XO) [3], the inhibition (usually the share of the control response that was lost under treatment) at 0.167 µM amounted to 16.5%.

Turning to `Nc1nc2ncc(C(=O)O)nc2c(=O)[nH]1` [pterin-6-carboxylic acid], in the data set on XO, the “XO inhibitory effect (literature)” value is “no XO inhibitory effect”.

On to `Nc1nc2c(c(=O)[nH]1)NC(CNc1ccc(C(=O)N[C@@H](CCC(=O)O)C(=O)O)cc1)CN2` (stereo partly drawn) [tetrahydrofolic acid], for which the “XO inhibitory effect (literature)” value in the data set on XO was “stronger than that of folic acid”. In addition, the “XO inhibitory potency relative to a comparator (in words)” value is reported as “more potent than folic acid” on Xanthine oxidase (XO) [1] (cell-free system) and “dihydrofolic acid>tetrahydrofolic>folic acid” on Xanthine oxidase (XO) [1] (cell-free system, listed as tetrahydrofolic). For the same molecule, the “XO activity inhibition (in words)” value at Xanthine oxidase (XO) [1] (20 nM XO) is on record as “significantly inhibited XO activity”.
